The subject of one assay is NHDF cells. Description: Procollagen Type I Peptide (PIP) production, EIA of culture supernatant. Format: cell-based, Human. The following applies: 24 hours, untreated group = 100. The procedure:
Normal Human Dermal Fibroblasts (NHDF) were obtained from Lonza (Lonza Walkersville, Inc.) and cultured in FBM (Fibroblast Basal Medium) supplemented with 0.1% hFGF-B, insulin, GA-1000, and 2% FBS at 37°C in a 5% CO2 incubator. Subculture was performed every 2 to 3 days.
NHDF cells were seeded at 2.0 × 10^4 cells/well in a 24-well plate and incubated for 24 hours at 37°C in a 5% CO2 incubator. After incubation, the culture medium was replaced with serum-free FBM, and the peptide prepared in the above Example was applied at concentrations of 1-100 µM, followed by incubation for 24 hours. The supernatant from each experimental group was collected, and the amount of procollagen released into the medium was measured. The positive control group was treated with ascorbic acid at a concentration of 0.001 v/v%. Measurement of procollagen levels was performed using a Procollagen Type I Peptide (PIP) EIA Kit (Takara Biomedical Co.) according to the manufacturer's protocol. The quantitative results of procollagen type I peptide production following treatment with the peptide of the Example are shown in Table 2 and Fig. 3.

Another assay deals with B16F10 cells. Description: Melanin synthesis inhibition in α-MSH-stimulated melanocytes. The format is cell-based, Mouse. The following applies: 72 hours, α-MSH alone = 100. On the procedure: Mouse-derived melanocytes (B16F10 cells) were obtained from the American Type Culture Collection (ATCC) and used. The cells were cultured in Dulbecco's Modified Eagle's Medium (DMEM) supplemented with 1% penicillin-streptomycin and 10% fetal bovine serum (FBS) at 37 °C in a 5% CO2 incubator, and subcultured every 3 to 4 days.
B16F10 cells were seeded at 6.0 × 10^4 cells/well in a 6-well plate and cultured for 24 hours at 37 °C in a 5% CO2 incubator. The culture medium was then replaced with phenol red-free, serum-free DMEM, followed by treatment with α-MSH, a melanin production-inducing hormone, and the peptide from the above Preparation Example at concentrations ranging from 1 to 100 µM. The cells were incubated for 72 hours, after which they were collected and lysed with 1 N NaOH in an 80 °C heating block to dissolve intracellular melanin. The absorbance of the resulting solution was measured at 490 nm. The control group was treated with arbutin at a concentration of 500 µg/mL.

Another assay has as its system HaCaT cells. Description: Hyaluronic acid (HA) production, ELISA of culture supernatant. Format: cell-based, human. As to conditions: 24 hours, untreated group = 100. On the procedure: The HaCaT human keratinocyte cell line was obtained from Cell Line Service GmbH (Germany). The cells were cultured in DMEM containing 1% penicillin-streptomycin and 10% fetal bovine serum (FBS) at 37°C in a 5% CO2 incubator, and subculture was performed every 2 to 3 days.
HaCaT cells were seeded at 1.0 × 10^5 cells/well in a 24-well plate and incubated for 24 hours at 37°C in a 5% CO2 incubator. After incubation, the culture medium was replaced with serum-free DMEM, and the peptide prepared in the above Example was applied at concentrations of 50-200 µM, followed by incubation for 24 hours. The supernatant from each experimental group was collected, and the amount of hyaluronic acid (HA) released into the medium was measured. The positive control group was treated with N-acetylglucosamine at a concentration of 10 mM. Measurement of hyaluronic acid production was conducted using a Hyaluronic Acid ELISA Kit (Cusabio Biotechnology Co., Ltd.) following the manufacturer's protocol.
On the technique in general: In an ELISA, binding on a coated surface is turned into a signal by an enzyme label.

For the compound “Ala-Ala-Gln-Pro-Arg (AAQPR; printed: Ala-Ala-Gln-Pro-Arg)”, the “Procollagen production (%)” value with NHDF cells (1 µM) amounted to 105.45±3.15%; in the assay with NHDF cells (10 µM) it was 129.75±9.74%; in the assay with NHDF cells (50 µM), 132.64±13.74%; in the assay on NHDF cells (100 µM), 134.92±1.3%. Further, the “Melanin production (%)” value was 100.86±4.32% in the assay on B16F10 cells (1 µM with α-MSH (200 nM)), 89.62±2.95% with B16F10 cells (10 µM with α-MSH (200 nM)) and 79.76±4.18% in the assay on B16F10 cells (100 µM with α-MSH (200 nM)). The “Hyaluronic acid production (%)” value in the assay with HaCaT cells (50 µM) is 107.14±1.08%; in the assay with HaCaT cells (100 µM), 130.93±0.59%; in the assay with HaCaT cells (200 µM), 136.91±6.87%.

For the compound `CC(=O)N[C@H]1C(O)O[C@H](CO)[C@@H](O)[C@@H]1O` (stereo partly shown) [NAG, N-acetylglucosamine], in the assay on HaCaT cells (10 mM (positive control)), the “Hyaluronic acid production (%)” value is given as 125.52±1.18%.

Take `OC[C@H]1O[C@@H](Oc2ccc(O)cc2)[C@H](O)[C@@H](O)[C@@H]1O` [Arbutin, arbutin]: the “Melanin production (%)” value in the assay with B16F10 cells (500 µg/mL (control) with α-MSH (200 nM)) is on record as 59.6±0.8%.

For the compound `O=C1O[C@H]([C@@H](O)CO)C(O)=C1O` [Asc.A, ascorbic acid], the “Procollagen production (%)” value in the assay with NHDF cells (10 µg/mL (positive control)) is 159.45±3.8%.

Values taken from EP4671262A1, “NOVEL PEPTIDE EXHIBITING SKIN CONDITION IMPROVEMENT ACTIVITY AND COSMETIC COMPOSITION CONTAINING SAME” (Daebong LS Co., Ltd., priority 2023, dated 2024).
